The source of these data is US20240368619A1, “METHODS AND COMPOSITIONS FOR PPO HERBICIDE TOLERANCE” (SESVanderHave NV, priority 2021, published 2024).

Like-named read-outs stand apart in the source and are kept apart here.

Holding throughout (format): in vivo, Beta vulgaris
Data set [1] has as its system wild-type sugar beet plants. Description: Spray test of PPO herbicides on control (Ctrl) sugar beet plants. Particulars: SAF 1X, 200 g a.i./ha, 17 days after spraying. The method, then: (§1) In other experiments, plants carrying the mutation R126L described below in Table 6 were acclimatized in soil for 3-5 weeks and screened for PPO resistance with a spray test of the PPO herbicides Saflufenacil (Brand name TREEVIX at a recommended dose of 200 g a.i./ha), Pyraflufen-ethyl (Brand name EVOLUTION at a recommended dose of 0.8l/ha, or a.i. 26.5 g/l) Saflufenacil (pure compound Sigma at a recommended dose of 200 g a.i./ha). The spray was performed at a concentration of 0.5× and 1× of the recommended dose for Saflufenacil), and 0.2× for Pyraflufen-ethyl). The pure chemical compound SAF used on the regenerated plants in vitro was also used in this screen at 1× recommended dose of 200 g ai/Ha. Water treatment was included as a control. […] In both experiments each sugar beet plant was multiplied in vitro as to include a total of minimum 4 clones or replicates of each edited sugar beet plant per herbicide treatment. The phytotoxicity effect of PPO inhibiting herbicides was measured in mutated sugar beet plants (on a set of minimum 4 clones per edited sugar beet plant) based on a scale from 0% to 100%, or 1 to 5, (i.e. 0% or 1 being no damage/no phytotoxicity observed and 100% or 5, being all plants were completely damaged or killed,) compared to wild-type plants. […]
No score is provided when the plant has not been tested, noted as NT in the table (not tested). […]

The test system of data set [2] is edited sugar beet plants. In words: In vitro growth of regenerated edited plants on media containing SAF. As to conditions: media containing SAF 2.5 μM. The method, then:
(§2) In other experiments, screening for resistance to PPO herbicides was done on 25 regenerated sugar beet plants obtained after transfection of guard cell protoplasts by growing these plants (8 clones or copies per plant) on media containing SAF at a concentration of 2.5 μM. Visual observation of growth was done after 20 to 28 days. Plants were scored visually according to their growth, and marked “OK” for plants showing growth, “Bit growth” for plants showing limited growth, “No” for plants showing no growth, or “Dead” for plants that were dead after SAF exposure. The concentration of SAF used in this screen was identified as impacting severely on regenerated wild-type plants obtained after protoplast isolation and regeneration from the sugar beet genotype, from which guard cell protoplasts are isolated for transfection.

The subject of data set [3] is sugar beet plants edited at position 126 showing another type of edit than the expected mutation. Particulars: SAF 1X, 200 g a.i./ha, 17 days after spraying. The method, then: as §1
(§3) No score is provided when the plant has not been tested, noted as NT in the table (not tested). Water treatment was included when enough plants were available. At least 4 copies per edited plant were sprayed. Scores were given on group of 4 copies per edited plant. HDR=edited plant showing the expected mutation R to L at position 126, INDEL=edited plant showing another type of edit than the expected mutation.

The test system of data set [4] is sugar beet plants carrying the R126L mutation. Particulars: SAF 1X, 200 g a.i./ha, 17 days after spraying. As for the experimental part:
as §1, §3

Data set [5] deals with regenerated wild-type sugar beet plants. In words: In vitro growth of regenerated wild-type plants on media containing SAF. Particulars: media containing SAF 2.5 μM; wild-type genotype. The method, then: as §2

Consider `CC(C)N(C)S(=O)(=O)NC(=O)c1cc(-n2c(=O)cc(C(F)(F)F)n(C)c2=O)c(F)cc1Cl` [SAF, saflufenacil], for which the “phytotoxicity score 1 to 5 (healthy to damaged)” value stood at 5 in data set [1] (B8M52 (Ctrl)); 5 in data set [1] (HTC005 (Ctrl)); 5 in data set [3] (event HTC001 (INDEL)); 4 in data set [3] (event HTC002 (INDEL)); 4 in data set [3] (event HTC009 (INDEL)); 4 in data set [3] (event HTC012 (INDEL)). The “phytotoxicity score 1 to 5 (healthy to damaged)” value in data set [3] (event HTC014 (INDEL)) is 4; in data set [3] (event HTC016 (INDEL)) it was 4; in data set [3] (event HTC017 (INDEL)), 4; in data set [3] (event HTC021 (INDEL)), 5; in data set [3] (event HTC023 (INDEL)), 2; in data set [3] (event HTC028 (INDEL)), 4. For the same molecule, the “phytotoxicity score 1 to 5 (healthy to damaged)” value in data set [4] (event HTC003 (HDR)) came out at 4; in data set [4] (event HTC007 (HDR)), 3; in data set [4] (event HTC013 (HDR)) it was 2; in data set [4] (event HTC015 (HDR)), 3; in data set [4] (event HTC018 (HDR)) it was 2; in data set [4] (event HTC024 (HDR)), 4. The “phytotoxicity score 1 to 5 (healthy to damaged)” value in data set [4] (event HTC046 (HDR)) stood at 2; in data set [4] (event HTC056 (HDR)), 4. Also, in data set [2] (20 to 28 days, edited plants scored as OK and Bit growth), the “growth of edited plants (visual)” value is “good level of SAF tolerance”. For the same molecule, in data set [2] (20 days, HTC013 and HTC015 (R126L), 8 copies each, versus wild-type), the “growth and plant development of edited versus wild-type plants (visual)” value was “Clear differences in growth, and plant development”. In addition, the “effect on growth of regenerated wild-type plants (visual)” value in data set [5] is “severe growth retardation and in some cases lethal effect”.
